Reference: patent publication US20260373102A1, “INJECTABLE GUANFACINE FORMULATIONS AND METHODS” (Cumberland Pharmaceuticals Inc., priority 2023, published 2026)
Structures can show the parent of a compound that is named as a salt. Where two headings read alike, the source gives them in different places. Values belong to the molecule of their own block, whether it stands above or below them.

How the values were obtained:
Format in all cases: physicochemical
[1] = Guanfacine solubility at pH 7.0 and 8.0; conditions: for solubility at 1 h: sodium phosphate buffer, aqueous buffer, 0.22 μm filtered, HPLC, read-out: concentration of filtered sample (solubility)
Protocol: Stock solutions of acetic acid and sodium acetate were used for making another pH 4.0 sample and a pH 5.0 sample. For the pH 4.0 sample, 920 μL of acetic acid was added to 80 μL of sodium acetate and then the final solution was prepared as described above to achieve a 5 mM buffer concentration. For the pH 5.0 sample, 700 μL of acetic acid was added to 1,300 μL of sodium acetate and 1.0 mLs of that buffer stock solution was added to make a final buffer concentration of 20 mM. With the exception of the buffer concentration, the pH 5.0 sample solution was completed as described above. Another sample solution was also made at 20 mM sodium acetate, pH 5.0, except the solvent was sparged with nitrogen and the head space of the vial was purged with nitrogen just prior to stoppering in order to remove air from the sample. For the pH 6.0 sample, a stock solution with 1,840 μL of 0.5 M sodium phosphate monobasic and 160 μL of 0.5 M sodium phosphate dibasic was made that was then diluted to 10 mM sodium phosphate by adding 1.0 mL to a final of 50 grams of solution. The solution was then completed as described previously.
Follow up testing was done to confirm that Guanfacine solubility was lower at pH 7.0 and 8.0 compared to the other samples made at pH levels≤6.0. For the pH 7.0 sample, a stock solution of 0.192 mL of 0.5 M sodium phosphate monobasic and 0.208 mLs of 0.5 M sodium phosphate dibasic was added to a glass tube followed by ~8.0 mLs of WFI and ~11.5 mg of Guanfacine-HCl. The solution was then adjusted to pH 7.0 with a solution of 0.2 N NaOH and adjusted to a volume of 10 mLs with WFI. For the pH 8.0 sample, a stock solution of 0.028 mL of 0.5 M sodium phosphate monobasic and 0.372 mLs of 0.5 M sodium phosphate dibasic was added to a glass tube followed by ~8.0 mLs of WFI and 11.48 mg of Guanfacine-HCl. The solution was then adjusted to pH 8.0 with a solution of 0.2 N NaOH and adjusted to a volume of 10 mLs with WFI. […] After 1 hour of sonication both samples were then filtered through a 0.22 μm PVDF filter and analyzed by HPLC. The concentration of the filtered pH 7.0 sample was ~0.35 mg/mL and the concentration of the filtered pH 8.0 sample was ~0.12 mg/mL. Therefore Guanfacine-HCl was less soluble at pH 7.0 and 8.0 compared to pH levels of 6.0 and lower.

[2] = Chemical stability of Guanfacine solutions in WFI at room temperature (vials, IV bags; HPLC); conditions: for degraded at 72 h: 0.5 mg/mL
Protocol: Guanfacine HCl powder (Laxai Avanti, Lot CPL-01-2013-014-033) was dissolved in WFI at a concentration of 0.5 mg/mL, passed through a 0.22 μm PVDF membrane in a biosafety cabinet, and then filled into 20 mL glass vials (particle free), or 150 ml polyolefin IV bags. The vials and IV bags were stored at room temperature conditions. The Guanfacine solutions in the vials and IV bags were at pH 5.7 and 5.0, respectively. After 72 hours at room temperature the Guanfacine solution in the vials formed a degradation product at 0.23% and the Guanfacine solution in the IV bags formed a degradation product at 0.16%.
Additionally, Guanfacine HCl (Laxai Avanti, Lot CPL-01-2013-014-033) was dissolved in WFI to a final concentration of 1.14 mg/mL, pH 4.5, passed through a 0.22 μm PVDF membrane in a biosafety cabinet, and then filled into glass vials. The glass vials were stored at room temperature conditions.

[3] = Compatibility of Guanfacine with Ropivacaine (appearance, pH, particulate matter); conditions: for Particulate Matter 10 μm / Particulate Matter 25 μm: Guanfacine only in WFI, filtered, before mixing; for concentration of Guanfacine freebase in the WFI control: HPLC
Protocol: The compatibility of 1.0 mg/mL and 0.1 mg/mL solutions of Guanfacine diluted into 30 mL Ropivacaine (USP 5 mg/mL Hospira, Lot-48-031-DK) was tested. A 0.1 and 1.0 mg/mL solution of Guanfacine free base in water for injection (WFI) was prepared. For every 1.148 mg of Guanfacine-HCl there is 1 mg of Guanfacine free base. For the 0.1 mg/mL solution, 57.4 mg of Guanfacine-HCl (lot #CPL-01-2013-014-033 Laxai Avanti) was dissolved in 400 mL of WFI (Hospira 1000 mL Bag, Lot 51-114-JT). Once fully dissolved, the solution was transferred to a 500 mL volumetric flask and q.s. to volume. For the 1.0 mg/mL solution, 114.8 mg of Guanfacine-HCl was dissolved in 80 mL of WFI. Once fully dissolved, the solution was transferred to a 100 mL volumetric flask and q.s. to volume.
Two glass vials were rinsed with WFI three times and emptied. The vials were rinsed with filtered Guanfacine solution three times, 5 mLs at a time. Approximately 35 mLs of the Guanfacine solutions were filtered into the vials using a Millex GV Sterile PVDF 0.22 μm syringe filter. The particulate content in the filtered Guanfacine solutions was determined prior to adding to the Ropivacaine vial using an APSS Liquiliaz particle counter. 1.2 mLs of filtered Guanfacine solutions at 0.1 or 1.0 mg/mL were injected into three separate vials containing Ropivacaine for each concentration (1:25 dilution of Guanfacine:Ropivacaine). The concentration of Guanfacine freebase in the WFI control was 0.10 mg/mL and 1.05 mg/mL, as determined by HPLC. The compatibility solutions were not able to be analyzed by the HPLC assay for Guanfacine because Guanfacine and Ropivacaine have very similar elution times and only the Ropivacaine peak could be seen on the chromatogram.
The appearance, pH, and particulate content for one vial at each concentration at time zero, 4 to 6 hours, and 24 hours was assessed and the results are reported in Table 1, below.

solubility compared to pH levels of 6.0 and lower ([1]; pH 7.0 and 8.0): less soluble
appearance of solution ([1]; pH 7.0 and pH 8.0 samples (both), after 1 hour of sonication): cloudy and contained precipitate
solubility at 1 h ([1]; pH 7.0, sodium phosphate, after 1 hour of sonication): ~350 µg/mL
solubility at 1 h ([1]; pH 8.0, sodium phosphate, after 1 hour of sonication): ~120 µg/mL
Area % of peak 2 ([2]; 1.14 mg/mL Guanfacine-HCl in WFI, pH 4.5, glass vials, 1 week, RRT 1.44): 0.02%
Area % of peak 3 (degradation product) ([2]; 1.14 mg/mL Guanfacine-HCl in WFI, pH 4.5, glass vials, 1 week, RRT 8.72, 10080 min): 0.26%
Area % of guanfacine peak (peak 1) ([2]; 1.14 mg/mL Guanfacine-HCl in WFI, pH 4.5, glass vials, time zero, RRT 1): 99.98%
Area % of peak 2 ([2]; 1.14 mg/mL Guanfacine-HCl in WFI, pH 4.5, glass vials, time zero, RRT 1.45): 0.02%
remaining at 168 h ([2]; water, 1.14 mg/mL Guanfacine-HCl in WFI, pH 4.5, glass vials, 1 week, RRT 1, read-out: Area % of guanfacine peak (peak 1)): 99.7%
Structure (SMILES): N=C(N)NC(=O)Cc1c(Cl)cccc1Cl [Guanfacine-HCl, N-amidino-2-(2,6-dichlorophenyl) acetamide monohydrochloride]

compatibility with Ropivacaine ([3]; 1.0 mg/mL in WFI, 1:25 dilution of Guanfacine to Ropivacaine): compatible with Ropivacaine
Particulate Matter 10 μm ([3]; 0.1 mg/mL): 0 Particles per mL
Particulate Matter 25 μm ([3]; 0.1 mg/mL): 0 Particles per mL
Particulate Matter 10 μm ([3]; 1 mg/mL): 6 Particles per mL
Particulate Matter 25 μm ([3]; 1 mg/mL): 0 Particles per mL
concentration of Guanfacine freebase in the WFI control ([3]; nominal 0.1 mg/mL): 100 µg/mL
concentration of Guanfacine freebase in the WFI control ([3]; nominal 1.0 mg/mL): 1050 µg/mL
dissolution at 1 mg/mL ([1]; pH 7.0, 1 mg/mL): did not completely dissolve
Area % of guanfacine peak (peak 1) ([2]; 0.5 mg/mL in WFI in IV bags, pH 5.0, time zero, RRT 1.00): 99.94%
Area % of peak 2 (degradation product) ([2]; 0.5 mg/mL in WFI in IV bags, pH 5.0, time zero, RRT 8.77): 0.06%
Area % of peak 2 ([2]; 0.5 mg/mL in WFI in vials, pH 5.7, 24 hours, RRT 1.31): 0.02%
Area % of peak 2 ([2]; 0.5 mg/mL in WFI in vials, pH 5.7, 72 hours, RRT 1.32): 0.01%
Area % of peak 3 ([2]; 0.5 mg/mL in WFI in vials, pH 5.7, 72 hours, RRT 4.31): 0.01%
Area % of guanfacine peak (peak 1) ([2]; 0.5 mg/mL in WFI in vials, pH 5.7, time zero, RRT 1.00): 99.94%
Area % of peak 2 ([2]; 0.5 mg/mL in WFI in vials, pH 5.7, time zero, RRT 1.31): 0.01%
Area % of peak 4 (degradation product) ([2]; 0.5 mg/mL in WFI in vials, pH 5.7, time zero, RRT 8.58): 0.05%
remaining at 24 h ([2]; water, 0.5 mg/mL in WFI in IV bags, pH 5.0, 24 hours, RRT 1.00, read-out: Area % of guanfacine peak (peak 1)): 99.8%
degraded at 24 h ([2]; water, 0.5 mg/mL in WFI in IV bags, pH 5.0, 24 hours, RRT 8.79, read-out: Area % of peak 2 (degradation product)): 0.15%
remaining at 72 h ([2]; water, 0.5 mg/mL in WFI in IV bags, pH 5.0, 72 hours, RRT 1.00, read-out: Area % of guanfacine peak (peak 1)): 99.8%
remaining at 24 h ([2]; water, 0.5 mg/mL in WFI in vials, pH 5.7, 24 hours, RRT 1.00, read-out: Area % of guanfacine peak (peak 1)): 99.9%
degraded at 24 h ([2]; water, 0.5 mg/mL in WFI in vials, pH 5.7, 24 hours, RRT 8.58, read-out: Area % of peak 4 (degradation product)): 0.1%
remaining at 72 h ([2]; water, 0.5 mg/mL in WFI in vials, pH 5.7, 72 hours, RRT 1.00, read-out: Area % of guanfacine peak (peak 1)): 99.8%
degraded at 72 h ([2]; water, IV bags, pH 5.0, 72 hours at room temperature, read-out: degradation product formed): 0.16%
degraded at 168 h ([2]; water, glass vials, pH 4.5, one week at room temperature, 1.14 mg/mL, read-out: degradation product formed): 0.26%
degraded at 72 h ([2]; water, vials, pH 5.7, 72 hours at room temperature, read-out: degradation product formed): 0.23%
Structure (SMILES): N=C(N)NC(=O)Cc1c(Cl)cccc1Cl [Guanfacine]
